Key:
St. albus = experiment: Phototoxicity on Gram-positive bacteria, colony counting; assay type: cell-based
Procedure: (ii) Bacterial cultures. Bacteria of strains St. albus and E. coli XL-1 were cultured in liquid LB medium (E. coli in LB containing 12.5 μg tetracyclin/ml) to a final density of OD600 nm=0.5-0.9 (1 OD=8×10^8 bacteria/ml). The bacteria were spun down (4000×g, 5 min.) and resuspended in PBS.
(b) Bacterial. To determine the photodynamic efficacy, bacteria were diluted to aliquots of 300 μl containing about 10^7 bacteria, and incubated with increasing concentrations of sensitizer in plastic test tubes in the dark for 1 h at room temperature, and then illuminated at 70 mW/cm^2 for 15 min. Samples of the treated bacteria cultures were subsequently plated at different dilutions (50-200 bacteria/plate) on LB agar and cultured for 24 h at 37° C. for determination of bacterial survival by colony counting. Triplicate determinations were conducted and representative experiments are shown.
The phototoxicity of positively-charged compound 5 was tested on Gram-positive St. albus and Gram-negative E. coli bacteria in comparison to the negatively-charged Pd 3^1-oxo-15-methoxycarbonylmethyl-Rhodobacteriochlorin 13^1-(2-sulfoethyl)amide dipotassium salt (described in PCT/IL03/00973). Bacteria were incubated with increasing concentrations of the sensitizers for 1 h and illuminated or kept in the dark. […] Gram-positive bacteria St. albus, was 100 times more sensitive to compound 5 than Gram-negative E. coli. No phototoxicity was observed when bacteria were incubated and treated with the same sensitizers' concentration range without illumination (dark controls).

[1] = molecular target: human serum albumin (HSA) (Homo sapiens, UniProt P02768); experiment: Interaction with human serum albumin (aggregation state, spectrophotometric); assay type: binding; details: in PBS, 3.2×10^−4 M, 0.1-5 mg HSA
Procedure: A solution of 5 in PBS (3.2×10^−4 M, 100 μl) was mixed with various amounts of human serum albumin (0.1, 0.5, 1, 2, and 5 mg). Aggregation, at high concentrations of 5 in aqueous solutions, is reflected by splitting of the original monomeric peak at 747 nm into two new peaks at 720 and 760 nm. The state of aggregation was followed spectrophotometrically over the range of albumin concentrations at room temperature in a 0.1 mm cuvette. The absorbance intensity values at the peak wavelengths were taken as an indication of the aggregation.
Addition of the albumin caused disaggregation of the sensitizer 5 in PBS (FIG. 2). The absorption spectra of the solutions containing increasing amounts of albumin resembled the spectrum of the monomeric pigment 5 in methanol.

[2] = Biodistribution in rat organs and tissues (fluorescence); assay type: in vivo, Wistar rats; details: 0.6 mg/kg i.v.
Procedure: (x) Biodistribution. Wistar rats (n=2) were anesthetized and compound 5 of the invention (0.6 mg/kg) was injected into their tail vein. The control group (n=2) was not treated with the sensitizer. At 30 min and 24 h after injection, rats (one for each time-point), were sacrificed and samples of the indicated organs or tissues (heart, liver, lung, spleen, kidney, brain, testes, skin, muscle and fat) were collected into and weighed in pre-weighted vials, immediately frozen on dry ice and stored at […] in the dark until analyzed. For examination, each sample was thawed, weighed again, and homogenized (Polytron, Kinematica GmbH or Ultra-Turrax) in ice-cold water. The vials were then frozen in liquid nitrogen and lyophilized. The lyophilized samples were extracted with methanol (5-10 ml) in an amount equivalent to the tissue weight, and then vortexed and centrifuged. The supernatant was collected and analyzed and fluorescence measured as described in (ix) above. The fluorescence of methanol and of tissue extracts from control animals were used as blanks.

[3] = Octanol/water partition ratio; assay type: physicochemical
Excerpt: Optical absorption in water, λ (relative absorption): 753 (1.00), 519 (0.30), 354 (1.25) nm. Octanol/water partition ratio is 40/60. ESI-MS (+): 413.62 ([M-2×citrate]/2). Octanol/water partition ratio is 50/50. ESI-MS (+): 455.89 ([M-2×citrate]/2). Octanol/water partition ratio is 75/25.

Sequence of human serum albumin (HSA) (P02768 25-609): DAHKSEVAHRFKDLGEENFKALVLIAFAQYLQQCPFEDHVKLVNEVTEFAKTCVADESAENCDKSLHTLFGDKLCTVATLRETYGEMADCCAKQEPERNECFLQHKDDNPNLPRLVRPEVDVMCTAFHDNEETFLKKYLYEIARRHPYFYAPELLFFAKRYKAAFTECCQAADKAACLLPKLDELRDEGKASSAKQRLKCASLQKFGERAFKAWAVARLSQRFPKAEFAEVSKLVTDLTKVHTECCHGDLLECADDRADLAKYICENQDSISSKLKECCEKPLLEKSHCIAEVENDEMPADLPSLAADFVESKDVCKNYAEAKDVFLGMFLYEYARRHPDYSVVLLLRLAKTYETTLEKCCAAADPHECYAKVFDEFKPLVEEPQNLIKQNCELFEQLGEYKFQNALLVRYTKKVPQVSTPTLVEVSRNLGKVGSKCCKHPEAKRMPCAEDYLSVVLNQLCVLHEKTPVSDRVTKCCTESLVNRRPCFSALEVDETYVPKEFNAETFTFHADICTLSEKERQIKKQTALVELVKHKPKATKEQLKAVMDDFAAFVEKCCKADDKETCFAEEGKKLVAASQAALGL

Substance: 3^1-Oxo-15-methoxycarbonylmethyl-Rhodo-bacteriochlorin 13^1,17^3-di(2-N^3-trimethylammoniumethyl)amide dicitrate salt [Compound 5]
- sensitivity of St. albus relative to E. coli (St. albus): 100 times
- phototoxic killing concentration (St. albus; 1 h incubation, illuminated 15 min at 70 mW/cm^2, read-out: Kd (phototoxicity)): 20 nM
- aggregation state on addition of albumin [1]: disaggregation
- levels of the sensitizer in organs ([2]; 30 min after injection): relatively high in the blood, kidneys and lungs
- level of the sensitizer in the blood ([2]; 24 h after injection): almost background level
- levels of the sensitizer in organs ([2]; 24 h after injection): significant levels were still found in the kidneys, liver and spleen
- Octanol/water partition ratio ([3]; dicitrate salt): 40/60
- Octanol/water partition ratio ([3]; listed as 2, dicitrate salt): 75/25

Source: patent publication US8207154B2, “Catatonic bacteriochlorophyll derivatives” (Yeda Research and Development Co., Ltd., priority 2005, dated 2012)
